Counter-ions that a name gives are not always drawn.
These molecules were tested on Acinetobacter baumannii ATCC17978 (assay: Antimicrobial susceptibility testing: 90% growth inhibitory concentration (IC90) determination). Settings: 90% growth inhibitory concentration, Acinetobacter baumannii ATCC17978, Iso-Sensitest broth, OD 600 nm over 16 h; read-out: ATCC17978 IC90.
Type: cell-based
Procedure, shortened: (§1)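 Compounds in twofold series (e.g. 50 to 0.097 μM final) in Iso-Sensitest broth, inoculated at ~5×10^5 CFU/ml, incubated at 35±2° C. OD600 was read every 20 minutes for 16 h. IC90 was derived from growth inhibition during logarithmic phase.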
With “(R)-1-(2-chloro-4-((3-(3-fluoro-4-methoxyphenyl)imidazo[1,2-a]pyrazin-8-yl)amino)benzoyl)-N-(pyrrolidin-3-yl)piperidin-4-carboxamide hydrochlroide [Example 17]” the IC90 was 220 nM.

Same assay, conditions: Acinetobacter baumannii, ATCC17978, 16 h, 90% growth inhibitory concentration, Acinetobacter baumannii ATCC17978, Iso-Sensitest broth, OD 600 nm over 16 h; read-out: ATCC17978 IC90
`COc1ccc(-c2cnc3c(Nc4ccc(C(=O)N5CCC(O)(CC(=O)N(C)C)CC5)c(Cl)c4)nccn23)cc1F` [Example 106, 2-(1-(2-chloro-4-((3-(3-fluoro-4-methoxyphenyl)imidazo[1,2-a]pyrazin-8-yl)amino)benzoyl)-4-hydroxypiperidin-4-yl)-N,N-dimethylacetamide] gave an IC90 of 540 nM.
Work on `COc1ccc(-c2cnc3c(Nc4ccc(C(=O)N5CCC(C(=O)NC[C@H](O)[C@@H](O)[C@H](O)[C@H](O)CO)CC5)c(Cl)c4)nccn23)cc1F` [Example 107, 1-(2-chloro-4-((3-(3-fluoro-4-methoxyphenyl)imidazo[1,2-a]pyrazin-8-yl)amino)benzoyl)-N-((2S,3R,4R,5R)-2,3,4,5,6-pentahydroxyhexyl)piperidine-4-carboxamide] yielded an IC90 of 260 nM.

The molecules below were run on Acinetobacter baumannii ATCC17961 in the same assay as above. Settings: Acinetobacter baumannii ATCC17961, Iso-Sensitest broth, OD 600 nm over 16 h.
Type: cell-based
Procedure, shortened: as §1
With `N#CCOc1ccc(-c2cnc3c(Nc4ccc(C(=O)N5CCN(C(=O)[C@@H]6C[C@@H](O)CN6)CC5)c(Cl)c4)nccn23)c(Cl)c1F` [Example 33, 2-[3-chloro-4-[8-[3-chloro-4-[4-[(2S,4R)-4-hydroxypyrrolidine-2-carbonyl]piperazine-1-carbonyl]anilino]imidazo[1,2-a]pyrazin-3-yl]-2-fluoro-phenoxy]acetonitrile Formate] the IC90 was 33.9 nM.
Work on `COc1ccc(-c2cnc3c(Nc4ccc(C(=O)N5CCN(C(=O)[C@@H]6C[C@@H](O)CN6)CC5)c(Cl)c4)nccn23)c(F)c1F` [Example 35, [2-chloro-4-[[3-(2,3-difluoro-4-methoxy-phenyl)imidazo[1,2-a]pyrazin-8-yl]amino]phenyl]-[4-[(2S,4R)-4-hydroxypyrrolidine-2-carbonyl]piperazin-1-yl]methanone formate] yielded an IC90 of 41.2 nM.
In the case of `COc1ccc(-c2cnc3c(Nc4cc(F)c(C(=O)N5CCN(C(=O)[C@@H]6C[C@@H](O)CN6)CC5)c(F)c4)nccn23)c(F)c1F` [Example 49, (4-(4-((3-(2,3-difluoro-4-methoxyphenyl)imidazo[1,2-a]pyrazin-8-yl)amio)-2,6-difluorobenzoyl)piperazin-1-yl)((2S,4R)-4-hydroxypyrrolidin-2-yl)methanone dihydrochloride], the IC90 was 72.2 nM.
With `COc1ccc(-c2cnc3c(Nc4cc(F)c(C(=O)N5CCN(C(=O)[C@@H]6C[C@@H](O)CN6)CC5)c(Cl)c4)nccn23)c(F)c1F` [Example 50, (4-(2-chloro-4-((3-(2,3-difluoro-4-methoxyphenyl)imidazo[1,2-a]pyrazin-8-yl)amino)-6-fluorobenzoyl)piperazin-1-yl)((2S,4R)-4-hydroxypyrrolidin-2-yl)methanone dihydrochloride] the IC90 was 82.1 nM.
`N#CCOc1ccc(-c2cnc3c(Nc4ccc(C(=O)N5CCN(C(=O)CN6CCC(C(=O)O)C6)CC5)c(Cl)c4)nccn23)c(F)c1F` (centres unmarked) [Example 108, 1-(2-(4-(2-chloro-4-((3-(4-(cyanomethoxy)-2,3-difluorophenyl)imidazo[1,2-a]pyrazin-8-yl)amino)benzoyl)piperazin-1-yl)-2-oxoethyl)pyrrolidine-3-carboxylic acid trifluoroacetate] was tested, and the IC90 was 350 nM.
Work on `COc1ccc(-c2cnc3c(Nc4cc(F)c(C(=O)N5CCN(C(=O)[C@@H]6C[C@@H](O)CN6)CC5)c(Br)c4)nccn23)c(F)c1F` [Example 109, (4-(2-bromo-4-((3-(2,3-difluoro-4-methoxyphenyl)imidazo[1,2-a]pyrazin-8-yl)amino)-6-fluorobenzoyl)piperazin-1-yl)((2S,4R)-4-hydroxypyrrolidin-2-yl)methanone dihydrochloride] yielded an IC90 of 69 nM.
`CNCC1(O)CCN(C(=O)c2ccc(Nc3nccn4c(-c5ccc(OC)c(F)c5)cnc34)cc2Cl)CC1` [Example 110, (2-chloro-4-((3-(3-fluoro-4-methoxyphenyl)imidazo[1,2-a]pyrazin-8-yl)amino)phenyl)(4-hydroxy-4-((methylamino)methyl)piperidin-1-yl)methanone] was tested, and the IC90 was 80 nM.
In the case of `CNCC1(O)CCN(C(=O)c2ccc(Nc3nccn4c(-c5ccc(OC)c(F)c5F)cnc34)cc2Cl)CC1` [Example 111, (2-chloro-4-((3-(2,3-difluoro-4-methoxyphenyl)imidazo[1,2-a]pyrazin-8-yl)amino)phenyl)(4-hydroxy-4-((methylamino)methyl)piperidin-1-yl)methanone], the IC90 was 68 nM.
`O=C(c1ccc(Nc2nccn3c(-c4ccc(OCF)c(F)c4F)cnc23)cc1Cl)N1CCN(C(=O)[C@@H]2C[C@@H](O)CN2)CC1` [Example 112, [2-chloro-4-[[3-[2,3-difluoro-4-(fluoromethoxy)phenyl]imidazo [1,2-a]pyrazin-8-yl]amino]phenyl]-[4-[(2S,4R)-4-hydroxypyrrolidine-2-carbonyl]piperazin-1-yl]methanone trifluoroacetate] gave an IC90 of 22 nM.
In the case of `O=C(c1ccc(Nc2nccn3c(-c4ccc(OC(F)F)c(F)c4F)cnc23)cc1Cl)N1CCN(C(=O)[C@@H]2C[C@@H](O)CN2)CC1` [Example 113, [2-chloro-4-[[3-[4-(difluoromethoxy)-2,3-difluoro-phenyl]imidazo[1,2-a]pyrazin-8-yl]amino]phenyl]-[4-[(2S,4R)-4-hydroxypyrrolidine-2-carbonyl]piperazin-1-yl]methanone formate], the IC90 was 22 nM.
Work on `O=C(c1ccc(Nc2nccn3c(-c4ccc(OC(F)F)c(F)c4F)cnc23)cc1F)N1CCN(C(=O)C2CCN(CC3CCNC3)CC2)CC1` (centres unmarked) [Example 114, (4-(4-((3-(4-(difluoromethoxy)-2,3-difluorophenyl)imidazo[1,2-a]pyrazin-8-yl)amino)-2-fluorobenzoyl)piperazin-1-yl)(1-(pyrrolidin-3-ylmethyl)piperidin-4-yl)methanone bis(2,2,2-trifluoroacetate)] yielded an IC90 of 56 nM.
